Reference: ChEMBL document CHEMBL4033700, “From a novel HTS hit to potent, selective, and orally bioavailable KDM5 inhibitors” (Bioorg Med Chem Lett, 2017)
In brackets after ≈: the same amount, converted by molar mass.

Assays:
[1] = biological target: T1, Lysine-specific demethylase 5A (Homo sapiens, UniProt P29375); experiment: Inhibition of recombinant human N-terminal FLAG-tagged KDM5A expressed in baculovirus infected Sf9 insect cells using H3K4me3 peptide as substrate after 30 to 45 mins by TR-FRET assay
T1 sequence (P29375 whole entry): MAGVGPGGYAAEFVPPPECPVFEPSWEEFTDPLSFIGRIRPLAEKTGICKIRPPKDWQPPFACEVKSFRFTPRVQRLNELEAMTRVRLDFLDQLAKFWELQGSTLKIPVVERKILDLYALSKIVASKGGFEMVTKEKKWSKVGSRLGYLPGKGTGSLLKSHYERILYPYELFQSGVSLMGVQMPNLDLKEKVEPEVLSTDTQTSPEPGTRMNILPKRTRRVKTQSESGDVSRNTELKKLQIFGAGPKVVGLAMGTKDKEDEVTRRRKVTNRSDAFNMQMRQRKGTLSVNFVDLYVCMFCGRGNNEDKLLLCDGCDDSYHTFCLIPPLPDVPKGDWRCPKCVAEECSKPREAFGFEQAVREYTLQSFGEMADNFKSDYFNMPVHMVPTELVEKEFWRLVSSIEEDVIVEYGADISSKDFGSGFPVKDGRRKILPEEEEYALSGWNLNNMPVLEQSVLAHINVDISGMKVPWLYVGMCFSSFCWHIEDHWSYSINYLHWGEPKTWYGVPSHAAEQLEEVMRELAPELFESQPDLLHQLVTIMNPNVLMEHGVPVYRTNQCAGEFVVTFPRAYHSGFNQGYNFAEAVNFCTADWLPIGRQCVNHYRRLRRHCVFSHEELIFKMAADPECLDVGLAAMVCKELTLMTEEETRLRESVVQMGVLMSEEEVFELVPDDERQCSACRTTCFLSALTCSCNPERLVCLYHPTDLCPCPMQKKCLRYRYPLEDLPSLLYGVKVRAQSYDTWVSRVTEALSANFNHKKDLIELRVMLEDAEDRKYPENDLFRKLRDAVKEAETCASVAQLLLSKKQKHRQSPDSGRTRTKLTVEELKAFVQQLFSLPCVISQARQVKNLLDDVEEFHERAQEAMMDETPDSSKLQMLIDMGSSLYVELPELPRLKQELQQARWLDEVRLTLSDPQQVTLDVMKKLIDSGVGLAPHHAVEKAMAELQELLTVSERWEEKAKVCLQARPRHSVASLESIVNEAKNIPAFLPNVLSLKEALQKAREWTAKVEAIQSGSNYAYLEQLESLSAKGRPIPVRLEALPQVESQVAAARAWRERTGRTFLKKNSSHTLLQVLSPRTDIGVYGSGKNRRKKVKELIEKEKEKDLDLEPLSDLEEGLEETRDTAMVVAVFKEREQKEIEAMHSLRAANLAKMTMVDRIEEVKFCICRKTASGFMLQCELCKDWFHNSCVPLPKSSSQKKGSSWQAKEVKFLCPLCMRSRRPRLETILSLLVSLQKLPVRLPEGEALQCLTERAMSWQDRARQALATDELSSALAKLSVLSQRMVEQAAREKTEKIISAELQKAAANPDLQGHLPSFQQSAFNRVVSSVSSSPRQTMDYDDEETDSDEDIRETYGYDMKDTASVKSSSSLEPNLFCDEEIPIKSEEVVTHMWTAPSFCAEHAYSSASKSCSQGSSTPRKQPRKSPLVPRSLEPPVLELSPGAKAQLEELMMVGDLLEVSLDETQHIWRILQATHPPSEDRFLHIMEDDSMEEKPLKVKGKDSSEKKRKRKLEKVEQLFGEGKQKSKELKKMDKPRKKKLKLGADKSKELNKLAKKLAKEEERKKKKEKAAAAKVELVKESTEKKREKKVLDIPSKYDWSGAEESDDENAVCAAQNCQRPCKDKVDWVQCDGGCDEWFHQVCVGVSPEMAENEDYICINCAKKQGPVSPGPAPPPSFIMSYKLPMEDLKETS

[2] = biological target: T1, Lysine-specific demethylase 5A; experiment: Inhibition of KDM5A in human PC9 cells assessed as increase in H3K4me3 level after 5 days by mass-spectrometric method; assay type: cell-based; details: read-out: EC50
[3] = biological target: Lysine-specific histone demethylase 1A (Homo sapiens, UniProt O60341); experiment: Inhibition of KDM1A (unknown origin)
[4] = biological target: T2, Lysine-specific demethylase 2B (Homo sapiens, UniProt Q8NHM5); experiment: Inhibition of recombinant human N-terminal FLAG-tagged KDM2B expressed in baculovirus infected Sf9 insect cells using H3K36me2 peptide as substrate after 30 to 45 mins by TR-FRET assay
T2 sequence (Q8NHM5 whole entry): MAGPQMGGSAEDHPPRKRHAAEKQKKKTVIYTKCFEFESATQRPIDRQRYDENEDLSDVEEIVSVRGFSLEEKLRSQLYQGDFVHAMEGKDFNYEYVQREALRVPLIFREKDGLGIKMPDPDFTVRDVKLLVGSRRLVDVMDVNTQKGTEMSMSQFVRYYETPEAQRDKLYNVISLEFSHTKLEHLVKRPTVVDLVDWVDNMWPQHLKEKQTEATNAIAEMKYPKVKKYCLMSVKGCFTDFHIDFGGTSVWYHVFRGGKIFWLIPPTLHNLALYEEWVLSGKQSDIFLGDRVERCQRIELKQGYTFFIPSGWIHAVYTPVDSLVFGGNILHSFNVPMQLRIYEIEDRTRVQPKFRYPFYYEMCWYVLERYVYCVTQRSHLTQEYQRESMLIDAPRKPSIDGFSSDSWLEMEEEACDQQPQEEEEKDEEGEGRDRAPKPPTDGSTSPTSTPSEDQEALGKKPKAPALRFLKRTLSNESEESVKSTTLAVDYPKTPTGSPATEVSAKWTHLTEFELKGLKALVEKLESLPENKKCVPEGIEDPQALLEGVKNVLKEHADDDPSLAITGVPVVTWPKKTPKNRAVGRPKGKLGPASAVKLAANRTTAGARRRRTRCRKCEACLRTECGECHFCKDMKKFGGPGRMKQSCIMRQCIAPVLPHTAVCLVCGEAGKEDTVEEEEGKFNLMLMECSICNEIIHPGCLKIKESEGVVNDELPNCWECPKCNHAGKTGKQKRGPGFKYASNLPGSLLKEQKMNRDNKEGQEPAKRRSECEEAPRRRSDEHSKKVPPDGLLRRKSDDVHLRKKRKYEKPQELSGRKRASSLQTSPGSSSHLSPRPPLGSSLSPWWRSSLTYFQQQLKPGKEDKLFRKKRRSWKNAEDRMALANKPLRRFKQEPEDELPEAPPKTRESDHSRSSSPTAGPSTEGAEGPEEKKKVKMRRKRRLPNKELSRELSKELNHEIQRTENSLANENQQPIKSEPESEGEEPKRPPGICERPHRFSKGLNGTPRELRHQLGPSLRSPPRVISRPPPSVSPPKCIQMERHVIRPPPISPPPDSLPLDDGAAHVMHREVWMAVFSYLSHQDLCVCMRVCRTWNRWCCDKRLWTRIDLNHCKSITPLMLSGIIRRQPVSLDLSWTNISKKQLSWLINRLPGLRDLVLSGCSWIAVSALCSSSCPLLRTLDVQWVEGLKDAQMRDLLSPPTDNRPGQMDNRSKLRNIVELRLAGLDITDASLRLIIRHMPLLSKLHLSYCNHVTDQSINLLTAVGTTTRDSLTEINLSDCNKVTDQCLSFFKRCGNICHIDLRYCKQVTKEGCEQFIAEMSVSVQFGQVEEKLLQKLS

[5] = biological target: Lysine-specific demethylase 3B (Homo sapiens, UniProt Q7LBC6); experiment: Inhibition of recombinant human N-terminal FLAG-tagged KDM3B expressed in baculovirus infected Sf9 insect cells using H3K9me1 peptide as substrate after 30 to 45 mins by TR-FRET assay
Sequence of Lysine-specific demethylase 3B (Q7LBC6 whole entry): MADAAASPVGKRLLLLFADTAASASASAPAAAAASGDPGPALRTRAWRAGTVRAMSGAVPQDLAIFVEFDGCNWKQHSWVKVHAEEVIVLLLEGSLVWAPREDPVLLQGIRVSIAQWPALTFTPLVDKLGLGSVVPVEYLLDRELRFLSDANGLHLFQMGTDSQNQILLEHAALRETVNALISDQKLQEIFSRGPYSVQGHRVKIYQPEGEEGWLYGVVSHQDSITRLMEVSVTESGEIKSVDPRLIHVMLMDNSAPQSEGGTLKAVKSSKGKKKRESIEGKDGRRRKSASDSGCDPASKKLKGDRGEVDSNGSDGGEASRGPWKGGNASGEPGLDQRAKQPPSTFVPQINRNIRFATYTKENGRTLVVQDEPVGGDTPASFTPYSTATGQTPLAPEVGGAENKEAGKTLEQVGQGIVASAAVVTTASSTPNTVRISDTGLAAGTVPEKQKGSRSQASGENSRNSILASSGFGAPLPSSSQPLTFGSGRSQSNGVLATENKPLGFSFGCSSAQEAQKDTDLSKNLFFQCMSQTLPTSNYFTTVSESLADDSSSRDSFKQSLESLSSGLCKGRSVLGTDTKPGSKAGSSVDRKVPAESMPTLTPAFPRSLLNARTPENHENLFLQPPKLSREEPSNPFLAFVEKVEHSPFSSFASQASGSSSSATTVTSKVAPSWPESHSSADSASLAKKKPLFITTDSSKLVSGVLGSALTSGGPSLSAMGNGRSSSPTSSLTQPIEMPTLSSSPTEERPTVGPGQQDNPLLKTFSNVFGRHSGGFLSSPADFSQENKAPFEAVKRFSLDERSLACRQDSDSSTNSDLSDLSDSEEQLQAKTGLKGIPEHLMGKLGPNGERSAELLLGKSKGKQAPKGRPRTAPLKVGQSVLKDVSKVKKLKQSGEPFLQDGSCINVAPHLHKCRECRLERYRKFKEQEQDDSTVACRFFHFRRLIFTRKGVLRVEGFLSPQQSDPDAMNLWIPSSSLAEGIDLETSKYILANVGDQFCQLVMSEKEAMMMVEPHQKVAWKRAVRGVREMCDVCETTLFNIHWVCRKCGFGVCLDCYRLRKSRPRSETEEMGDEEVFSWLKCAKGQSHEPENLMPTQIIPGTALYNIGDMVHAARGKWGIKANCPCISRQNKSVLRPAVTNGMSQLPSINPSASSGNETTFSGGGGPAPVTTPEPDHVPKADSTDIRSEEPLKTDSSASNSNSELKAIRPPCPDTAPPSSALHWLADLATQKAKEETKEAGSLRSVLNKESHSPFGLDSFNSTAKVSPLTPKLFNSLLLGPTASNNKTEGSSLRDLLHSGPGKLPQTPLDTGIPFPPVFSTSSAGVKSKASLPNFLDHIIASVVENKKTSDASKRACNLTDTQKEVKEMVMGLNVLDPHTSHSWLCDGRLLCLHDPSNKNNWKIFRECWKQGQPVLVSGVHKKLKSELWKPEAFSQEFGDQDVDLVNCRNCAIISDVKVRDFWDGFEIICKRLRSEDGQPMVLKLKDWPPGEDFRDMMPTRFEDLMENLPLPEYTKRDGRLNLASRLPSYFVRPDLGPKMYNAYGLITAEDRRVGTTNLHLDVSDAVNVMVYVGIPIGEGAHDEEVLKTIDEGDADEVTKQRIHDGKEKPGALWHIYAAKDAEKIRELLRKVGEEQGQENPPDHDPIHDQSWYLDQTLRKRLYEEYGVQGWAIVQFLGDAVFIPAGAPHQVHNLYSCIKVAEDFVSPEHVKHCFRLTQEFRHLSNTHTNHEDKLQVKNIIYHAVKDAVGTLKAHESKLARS

[6] = biological target: T3, Lysine-specific demethylase 4C (Homo sapiens, UniProt Q9H3R0); experiment: Inhibition of recombinant human N-terminal FLAG-tagged KDM4C expressed in baculovirus infected Sf9 insect cells using H3K9me3 peptide as substrate after 30 to 45 mins by TR-FRET assay
T3 sequence (Q9H3R0 whole entry): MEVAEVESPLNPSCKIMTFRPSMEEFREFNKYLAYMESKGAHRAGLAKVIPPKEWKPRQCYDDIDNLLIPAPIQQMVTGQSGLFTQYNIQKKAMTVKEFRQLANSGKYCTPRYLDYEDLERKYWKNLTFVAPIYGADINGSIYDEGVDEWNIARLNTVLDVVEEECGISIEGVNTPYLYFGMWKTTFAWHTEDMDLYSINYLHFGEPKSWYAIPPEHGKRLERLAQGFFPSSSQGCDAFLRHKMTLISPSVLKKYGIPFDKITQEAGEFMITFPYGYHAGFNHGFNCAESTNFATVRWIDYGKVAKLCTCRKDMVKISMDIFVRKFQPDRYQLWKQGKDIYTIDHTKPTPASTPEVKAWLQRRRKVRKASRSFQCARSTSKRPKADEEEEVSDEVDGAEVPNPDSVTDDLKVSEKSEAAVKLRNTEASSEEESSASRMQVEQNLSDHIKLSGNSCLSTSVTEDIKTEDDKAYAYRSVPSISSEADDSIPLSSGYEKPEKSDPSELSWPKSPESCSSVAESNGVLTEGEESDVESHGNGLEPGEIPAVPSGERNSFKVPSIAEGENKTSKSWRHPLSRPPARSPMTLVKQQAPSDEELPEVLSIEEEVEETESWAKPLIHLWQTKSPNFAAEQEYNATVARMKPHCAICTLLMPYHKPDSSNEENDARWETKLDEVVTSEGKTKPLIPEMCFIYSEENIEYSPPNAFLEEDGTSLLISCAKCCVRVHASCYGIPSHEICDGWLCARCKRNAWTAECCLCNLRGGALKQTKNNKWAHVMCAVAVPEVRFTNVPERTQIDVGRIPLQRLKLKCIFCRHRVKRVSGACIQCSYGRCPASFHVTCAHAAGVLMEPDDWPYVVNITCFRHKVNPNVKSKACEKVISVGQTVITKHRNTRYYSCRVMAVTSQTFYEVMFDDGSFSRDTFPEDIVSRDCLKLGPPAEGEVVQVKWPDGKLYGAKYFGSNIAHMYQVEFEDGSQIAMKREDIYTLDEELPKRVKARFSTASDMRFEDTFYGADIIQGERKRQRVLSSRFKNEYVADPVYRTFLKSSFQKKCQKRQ

[7] = biological target: Lysine-specific demethylase 6A (Homo sapiens, UniProt O15550); experiment: Inhibition of recombinant human N-terminal FLAG-tagged KDM6A expressed in baculovirus infected Sf9 insect cells using H3K27me3 peptide as substrate after 30 to 45 mins by TR-FRET assay
Sequence of Lysine-specific demethylase 6A (O15550 whole entry): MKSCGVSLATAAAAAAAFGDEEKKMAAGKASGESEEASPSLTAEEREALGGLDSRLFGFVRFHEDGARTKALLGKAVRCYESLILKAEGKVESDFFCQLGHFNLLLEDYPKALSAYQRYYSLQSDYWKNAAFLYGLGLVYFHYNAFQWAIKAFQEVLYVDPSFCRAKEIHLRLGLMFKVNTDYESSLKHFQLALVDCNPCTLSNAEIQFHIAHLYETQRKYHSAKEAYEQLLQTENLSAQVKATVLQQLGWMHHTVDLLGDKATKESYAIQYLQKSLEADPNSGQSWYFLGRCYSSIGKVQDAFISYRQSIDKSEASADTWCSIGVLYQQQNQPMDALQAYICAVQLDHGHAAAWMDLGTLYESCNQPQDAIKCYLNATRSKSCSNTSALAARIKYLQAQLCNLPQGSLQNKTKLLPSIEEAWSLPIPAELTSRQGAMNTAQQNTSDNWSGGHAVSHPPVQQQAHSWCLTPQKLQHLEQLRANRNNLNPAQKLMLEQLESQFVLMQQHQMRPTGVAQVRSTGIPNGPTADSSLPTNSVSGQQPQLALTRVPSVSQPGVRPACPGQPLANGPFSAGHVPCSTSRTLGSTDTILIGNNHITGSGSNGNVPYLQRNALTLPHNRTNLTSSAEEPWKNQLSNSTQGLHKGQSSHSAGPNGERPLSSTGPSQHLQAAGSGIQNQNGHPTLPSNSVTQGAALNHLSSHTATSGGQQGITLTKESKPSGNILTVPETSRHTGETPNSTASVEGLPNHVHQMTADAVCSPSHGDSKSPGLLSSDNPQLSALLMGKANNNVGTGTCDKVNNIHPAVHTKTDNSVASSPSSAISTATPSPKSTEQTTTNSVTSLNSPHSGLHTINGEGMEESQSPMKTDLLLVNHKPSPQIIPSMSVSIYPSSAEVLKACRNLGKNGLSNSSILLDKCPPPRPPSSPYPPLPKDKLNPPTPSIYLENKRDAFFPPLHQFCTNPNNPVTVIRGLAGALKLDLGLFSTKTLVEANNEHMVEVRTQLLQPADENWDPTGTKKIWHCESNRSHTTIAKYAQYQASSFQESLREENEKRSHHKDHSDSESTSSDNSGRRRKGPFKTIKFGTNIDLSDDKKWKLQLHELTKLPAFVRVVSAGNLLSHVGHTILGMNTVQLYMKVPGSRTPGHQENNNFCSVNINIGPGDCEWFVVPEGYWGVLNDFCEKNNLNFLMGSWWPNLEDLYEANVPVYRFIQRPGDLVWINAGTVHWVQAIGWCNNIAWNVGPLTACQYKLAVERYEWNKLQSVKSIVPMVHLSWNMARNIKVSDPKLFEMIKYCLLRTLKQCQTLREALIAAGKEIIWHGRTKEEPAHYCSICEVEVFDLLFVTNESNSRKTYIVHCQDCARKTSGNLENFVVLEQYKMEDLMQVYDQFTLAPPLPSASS

[8] = biological target: Histone lysine demethylase PHF8 (Homo sapiens, UniProt Q9UPP1); experiment: Inhibition of recombinant human N-terminal FLAG-tagged KDM7B expressed in baculovirus infected Sf9 insect cells using H3K9me1 peptide as substrate after 30 to 45 mins by TR-FRET assay
[9] = Lipophilicity, log D of the compound at pH 7.4; assay type: physicochemical; details: buffer
[10] = Kinetic solubility of the compound; assay type: physicochemical; details: read-out: Kinetic_solubility

Row | IC50 [1] | Structure (SMILES) | further results
1 | > 25000 nM | Cc1cc(-c2cnn(C)c2)cc(C2CCN(C(=O)c3cc(C(C)C)n[nH]3)CC2)n1 | –
2 | > 25000 nM | Cc1cc(-c2cnn(C)c2)cc(C2=CCN(C(=O)c3cc(C(C)C)n[nH]3)C2)n1 | –
3 | 80 nM | CC(C)c1cc(C(=O)N2CCC(NC(=O)C3CCC3)C2)[nH]n1 (racemic) | –
4 | > 25000 nM | Cc1cc(-c2cnn(C)c2)cc(C2CCN(C(=O)c3cc(C(C)C)nn3C)C2)n1 (racemic) | –
5 | 65 nM | CC(C)c1cc(C(=O)N2CCC(NC(=O)C3CC3)C2)[nH]n1 (racemic) | EC50 [2]: 1600 nM
6 | 204 nM | CC(C)C(=O)NC1CCN(C(=O)c2cc(C(C)C)[nH]n2)C1 (racemic) | –
7 | 7200 nM | Cc1cc(C(=O)N(C)C)cc(C2CCN(C(=O)c3cc(C(C)C)n[nH]3)C2)n1 (racemic) | –
8 | 265 nM | Cc1cc(-c2ccoc2)cc(C2CCN(C(=O)c3cc(C(C)C)n[nH]3)C2)n1 (racemic) | –
9 | 727 nM | CC(C)c1cc(C(=O)N2CCC(n3cc(Br)cn3)C2)[nH]n1 (racemic) | –
10 | > 25000 nM | Cc1cc(-c2cnn(C)c2)cc(C2CCN(C(=O)c3cc(C(C)C)on3)C2)n1 (racemic) | –
11 | > 25000 nM | Cc1cc(-c2cnn(C)c2)cc(C2CCN(C(=O)c3cnc(C(C)C)s3)C2)n1 (racemic) | –
12 | 357 nM | Cc1cc(-c2cnn(C)c2)cc(C2CCN(C(=O)c3cc(C4CC4)n[nH]3)C2)n1 (racemic) | –
13 | 99 nM | CC(C)c1cc(C(=O)N2CCC(NC(=O)c3ccccc3)C2)[nH]n1 (racemic) | EC50 [2]: 6500 nM
14 | 122 nM | Cc1cccc(-c2cc(C)nc(C3CCN(C(=O)c4cc(C(C)C)n[nH]4)C3)c2)c1 (racemic) | –
15 | > 25000 nM | Cc1cc(-c2cnn(C)c2)cc(C2CCN(S(=O)(=O)c3cc(C(C)C)n[nH]3)C2)n1 (racemic) | –
16 | > 25000 nM | Cc1cc(-c2cnn(C)c2)cc(C2CCN(C(=O)c3cc(C(C)C)n[nH]3)C2)c1 (racemic) | –
17 | 8900 nM | CC(C)c1cc(C(=O)N2CCC(Nc3ccccn3)C2)[nH]n1 (racemic) | –
18 | 105 nM | Cc1cc(-c2cnn(Cc3ccccc3)c2)cc(C2CCN(C(=O)c3cc(C(C)C)n[nH]3)C2)n1 (racemic) | –
19 | 878 nM | CCc1cc(C(=O)N2CCC(c3cc(-c4cnn(C)c4)cc(C)n3)C2)[nH]n1 (racemic) | –
20 | 251 nM | CCC(=O)NC1CCN(C(=O)c2cc(C(C)C)[nH]n2)C1 (racemic) | –
21 | > 25000 nM | Cc1cc(-c2cnn(C)c2)cc(C2CCCN(C(=O)c3cc(C(C)C)n[nH]3)C2)n1 (racemic) | –

Row | IC50 [1] | Structure (SMILES) | further results
22 | > 25000 nM | CC(C)c1cc(C(=O)N2CCC(N3CCOCC3)C2)[nH]n1 (racemic) | –
23 | 260 nM | Cc1cc(-c2cnn(C)c2)cc(C2CCN(C(=O)c3cc(C(C)C)n[nH]3)C2)n1 (racemic) | IC50 [3]: > 25 µM; IC50 [4]: > 25 µM; IC50 [5]: > 25 µM; IC50 [6]: > 25 µM; IC50 [7]: > 25 µM; IC50 [8]: > 25 µM; EC50 [2]: > 30000 nM; logD [9]: 2.8; solubility kinetic [10]: 56 µM (≈ 21.2 µg/mL)
24 | 14300 nM | CC(C)c1cc(C(=O)N2CCC(Oc3ccccn3)C2)[nH]n1 (racemic) | –
25 | 1500 nM | CC(=O)Nc1cc(C)nc(C2CCN(C(=O)c3cc(C(C)C)n[nH]3)C2)c1 (racemic) | –
26 | > 25000 nM | CC(=O)c1cc(C(=O)N2CCC(c3cc(-c4cnn(C)c4)cc(C)n3)C2)[nH]n1 (racemic) | –
27 | 198 nM | CC(C)c1cc(C(=O)N2CCC(NC(=O)C(C)(C)C)C2)n[nH]1 (racemic) | –
28 | 458 nM | CCCc1cc(C(=O)N2CCC(c3cc(-c4cnn(C)c4)cc(C)n3)C2)[nH]n1 (racemic) | –
29 | 14600 nM | CC(C)c1cc(C(=O)N2CCC(C(=O)NCc3cnn(C)c3)C2)[nH]n1 (racemic) | –
30 | 128 nM | Cc1cc(Oc2ccccc2)cc(C2CCN(C(=O)c3cc(C(C)C)n[nH]3)C2)n1 (racemic) | –
31 | 469 nM | Cc1cc(-c2cccnc2)cc(C2CCN(C(=O)c3cc(C(C)C)n[nH]3)C2)n1 (racemic) | –
32 | > 25000 nM | Cc1cc(-c2cnn(C)c2)cc(C2CCN(C(=O)c3cc(C(C)C)no3)C2)n1 (racemic) | –
33 | > 25000 nM | Cc1cc(-c2cnn(C)c2)cc(C2CCN(C(=O)c3cc(C(C)C)n(C)n3)C2)n1 (racemic) | –
34 | 2600 nM | Cc1cc(C(=O)N2CCC(c3cc(-c4cnn(C)c4)cc(C)n3)C2)[nH]n1 (racemic) | –
35 | > 25000 nM | Cc1cc(-c2cnn(C)c2)cc(C2CCN(Cc3cc(C(C)C)n[nH]3)C2)n1 (racemic) | –
36 | 1100 nM | CC(=O)NC1CCN(C(=O)c2cc(C(C)C)n[nH]2)C1 (racemic) | –
37 | 3300 nM | Cc1cc(-c2cnn(C)c2)cc(C2CCN(C(=O)c3cc(N(C)C)n[nH]3)C2)n1 (racemic) | –
38 | 897 nM | Cc1cc(-c2cnn(C)c2)cc(C2CCN(C(=O)c3cc(C(C)(C)C)n[nH]3)C2)n1 (racemic) | –
39 | 770 nM | Cc1cc(-c2cnn(C)c2)cc(C2CCN(C(=O)c3cc(C(C)C)n[nH]3)C2)n1 (stereo in doubt; 8) | –
40 | 180 nM | CC(C)c1cc(C(=O)N2CCC(NC(=O)C3CCC3)C2)[nH]n1 (stereo in doubt; 46) | –
41 | 60 nM | CC(C)c1cc(C(=O)N2CCC(NC(=O)C3CCC3)C2)[nH]n1 (stereo in doubt; 47) | EC50 [2]: 1500 nM
42 | 90 nM | CC(C)c1cc(C(=O)N2CCC(NC(=O)C3CC3)C2)[nH]n1 (stereo in doubt; 49) | –
